Source: patent US8338473B2, “Derivatives of psammaplin A, a method for their synthesis and their uses for the prevention or treatment of cancer” (Centre National de la Recherche Scientifique, priority 2007, dated 2012)
Read-outs that look alike come from different tables or passages of the source.

Legend:
[1] = tested on: A-375 cells; experiment: MTT cytotoxicity assay, A-375; conditions: read-out: IC50 values, MTT cytotoxicity assay; A-375, 48 h
[2] = tested on: ex vivo AML patient blasts; experiment: Cell cycle and apoptosis in ex vivo AML patient blasts; type: cell-based, human; conditions: for cell cycle arrest and apoptosis (caspase 3 activation): 4 ex vivo cultures, AML patients #102, #108, #109, #116
Method: FIG. 4: a) Cell cycle analyses and apoptosis carried out in ex vivo samples from AML patients identified with numbers; b) Cell cycle analysis, apoptosis and histone H3 acetylation levels of #116 AML cells after 20 hrs is of the indicated treatments.
(§1) Human leukemia cell line U937 was propagated in RPMI medium supplemented with 10% FBS (Foetal bovine serum; Hyclone) and antibiotics (100 U/mL penicillin, 100 μg/mL streptomycin and 250 ng/mL amphotericin-B). Cells were kept at the constant concentration of 200000 cells per milliliter of culture medium. For AML samples, bone marrow containing 80% to 90% leukemic blasts was purified over Ficoll. This study was approved by the Ethical Committee of the Second University of Naples.

[3] = tested on: HCT-116 colon carcinoma cells xenografted in immunoincompetent mice; conditions: for Normalised tumour weight: mean of n = 10
[4] = tested on: HCT-116 cells; experiment: MTT cytotoxicity assay, HCT-116; conditions: read-out: IC50 values, MTT cytotoxicity assay; HCT-116, 48 h
[5] = tested on: DU-145 cells; experiment: MTT cytotoxicity assay, DU-145; conditions: read-out: IC50 values, MTT cytotoxicity assay; DU-145, 48 h
[6] = tested on: U937 acute myeloid leukemia cell line; experiment: Cell cycle analysis in U937 cells; type: cell-based, human
Method: (§2) FIG. 1: a) Cell cycle analysis of U937 cells treated for 30 hrs with the indicated compounds used at 1 and 5 μM; b) Caspase 3 apoptotic assay of the indicated compounds after 24 hrs of treatment in the U937 cells; c) Tubulin acetylation and p21 expression levels at 6 and 16 hrs after treatment with the indicated compounds; total tubulin expression levels are used for equal loading; d) Histone H3 acetylation and K9 H3 methylation expression levels at 6 and 16 hrs after treatment with the indicated compounds; total tubulin expression levels are used for equal loading; e) K9, K14, K18 histone H3 acetylation expression levels at 6 and 16 hrs after treatment with the indicated compounds; total ERKs expression levels are used for equal loading; f) HDAC1 enzymatic assay: IP-HDAC1 is incubated with the indicated inhibitors for 24 Hrs; activity is measured as ^3H-acetyl release; g) HDAC4 enzymatic assay: IP-HDAC4 is incubated with the indicated inhibitors for 24 hrs; activity is measured as ^3H-acetyl release.
(§3) FIG. 3: a) Cell cycle and apoptosis analysis carried out in U937 cells after 24 hrs with the indicated compounds; values are media of independent triplicates; b) CD11c expression analysis carried out in U937 cells with the indicated compounds; values are media of independent duplicates; c) Tubuline acetylation and p21 expression levels in U937 cells after 24 hrs with the indicated treatments; total ERKs expression levels are used for equal loading; d) acetylation of histone H3 under the conditions indicated in (c).
as §1
MS-275 (Schering A G) was dissolved in ethanol and used at 5×10^−6M; valproic acid (VPA; Sigma) was used at 1 mM. All other compounds described were dissolved in DMSO (Sigma-Aldrich) and used at 1 or 5 μM.
2.5×10^5 cells were collected and resuspended in 500 μL of a hypotonic buffer (0.1% Triton X-100, 0.1% sodium citrate, 50 μg/mL propidium iodide, RNAse A). Cells were incubated in the dark for 30 min. Samples were acquired on a FACS-Calibur flow cytometer using the Cell Quest software (Becton Dickinson) and analysed with standard procedures using the Cell Quest software (Becton Dickinson) and the ModFit LT version 3 Software (Verity). All the experiments were performed 3 times.

[7] = tested on: p21WAF1/CIP1; experiment: p21 expression, Western blot in U937 cells; type: cell-based, human
Method: as §2, §3
For the determination of p21^WAF1/CIP1 and p16^INK4 100 μg of total protein extracts were separated on a 15% polyacrylammide gels and blotted. Western blots were shown for p21 (Transduction Laboratories, dilution 1:500), p16 (Santa Cruz) and total ERKs (Santa Cruz) were used to normalise for equal loading. For alpha-tubulin acetylation 25 μg of total protein extracts were separated on a 10% polyacrylamide gels and blotted. […]

[8] = tested on: p16INK4a promoter; experiment: Methylation specific PCR for the p16 gene; type: cell-based; conditions: 24 hrs
Method: FIG. 2: a) Methylation specific PCR for the RARβ gene after 16 and 24 hrs of treatment with the indicated compounds; b) Methylation specific PCR for the p16 gene after 24 hrs of the indicated treatments. Samples are representative of real duplicates; c) p16 expression levels in U937 cells after 24 hrs with the indicated treatments; d) DNMT enzymatic in vitro assay carried out with 1.5 and 50 μM of the indicated compounds;
DNA extraction was performed as described below. Bisulfite treatment and PCR for the determination of p16 methylation was performed as described from the suppliers (Chemicon).

[9] = tested on: histone deacetylases (HDAC); conditions: in vitro cell-free enzyme assay; read-out: IC50, inhibition of histone deacetylases (HDAC); cited from earlier work
[10] = biological target: HDAC4 (Homo sapiens, UniProt P56524); experiment: HDAC4 enzymatic assay (IP-HDAC4, 3H-acetyl release); type: biochemical; conditions: IP-HDAC4 incubated with inhibitor 24 hrs
Method: as §2

[11] = tested on: HDAC; conditions: cited from earlier work
[12] = tested on: histone H3; experiment: Histone H3 acetylation and K9 H3 methylation levels in U937 cells; type: cell-based, human; conditions: U937, 6 and 16 hrs
Method: as §2
For the determination of p21^WAF1/CIP1 and p16^INK4 100 μg of total protein extracts were separated on a 15% polyacrylammide gels and blotted. Western blots were shown for p21 (Transduction Laboratories, dilution 1:500), p16 (Santa Cruz) and total ERKs (Santa Cruz) were used to normalise for equal loading. For alpha-tubulin acetylation 25 μg of total protein extracts were separated on a 10% polyacrylamide gels and blotted. Western blots were shown for acetylated alpha-tubulin (Sigma, dilution 1:500) and total ERKs (Santa Cruz) or total tubulin (Sigma) were used to normalise for equal loading.

[13] = biological target: T1, HDAC6 (Homo sapiens, UniProt Q9UBN7); experiment: Alpha tubulin acetylation in U937 cells (HDAC6 readout); type: cell-based; conditions: U937, 6 and 16 hrs
T1 construct: Tubuline acetylation and p21 expression levels in U937 cells after 24 hrs with the indicated treatments; endogenous in cells; host or cells: U937
Method: as §2, with “release. […]” for “release.”

[14] = tested on: U937 cells; experiment: Caspase 3 apoptotic assay in U937 cells; type: cell-based, human; conditions: U937, 24 hrs
Method: as §2

[15] = tested on: breast cancer cells (ZR75.1); experiment: Anti-proliferative and apoptogenic action in breast cancer cells; type: cell-based; conditions: data not shown
[16] = biological target: HDAC1 (Homo sapiens, UniProt Q13547); experiment: HDAC1 enzymatic assay (IP-HDAC1, 3H-acetyl release); type: biochemical; conditions: IP-HDAC1 incubated with inhibitor 24 hrs
Method: as §2

[17] = tested on: prostate cancer cells (LnCap); experiment: Anti-proliferative and apoptogenic action in prostate cancer cells; type: cell-based; conditions: data not shown
[18] = Earlier tolerability tests in mice; type: in vivo; conditions: 30 mg/kg
Text: There were 10 animals in each group.

[19] = day 1, 20 mg/kg i.p. every second day
[20] = day 4, 20 mg/kg i.p. every second day
[21] = day 12, 20 mg/kg i.p. every second day
[22] = day 17, 20 mg/kg i.p. every second day
[23] = day 22, 20 mg/kg i.p. every second day

Sequence of HDAC1 (Q13547 whole entry, species assumed): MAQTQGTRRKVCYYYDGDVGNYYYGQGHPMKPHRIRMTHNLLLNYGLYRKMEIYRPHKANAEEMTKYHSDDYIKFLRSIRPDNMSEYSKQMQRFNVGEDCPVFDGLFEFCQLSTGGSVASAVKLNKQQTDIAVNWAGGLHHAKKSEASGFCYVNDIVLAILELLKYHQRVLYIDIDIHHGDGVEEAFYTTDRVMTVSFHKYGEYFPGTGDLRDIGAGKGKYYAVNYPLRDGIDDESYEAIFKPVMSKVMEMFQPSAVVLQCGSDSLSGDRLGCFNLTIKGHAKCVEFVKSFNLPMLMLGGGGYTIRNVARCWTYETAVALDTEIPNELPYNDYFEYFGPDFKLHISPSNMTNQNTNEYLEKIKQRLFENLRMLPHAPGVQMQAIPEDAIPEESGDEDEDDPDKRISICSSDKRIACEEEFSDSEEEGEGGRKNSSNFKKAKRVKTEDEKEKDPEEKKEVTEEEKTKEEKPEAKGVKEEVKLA
T1 sequence (Q9UBN7 whole entry): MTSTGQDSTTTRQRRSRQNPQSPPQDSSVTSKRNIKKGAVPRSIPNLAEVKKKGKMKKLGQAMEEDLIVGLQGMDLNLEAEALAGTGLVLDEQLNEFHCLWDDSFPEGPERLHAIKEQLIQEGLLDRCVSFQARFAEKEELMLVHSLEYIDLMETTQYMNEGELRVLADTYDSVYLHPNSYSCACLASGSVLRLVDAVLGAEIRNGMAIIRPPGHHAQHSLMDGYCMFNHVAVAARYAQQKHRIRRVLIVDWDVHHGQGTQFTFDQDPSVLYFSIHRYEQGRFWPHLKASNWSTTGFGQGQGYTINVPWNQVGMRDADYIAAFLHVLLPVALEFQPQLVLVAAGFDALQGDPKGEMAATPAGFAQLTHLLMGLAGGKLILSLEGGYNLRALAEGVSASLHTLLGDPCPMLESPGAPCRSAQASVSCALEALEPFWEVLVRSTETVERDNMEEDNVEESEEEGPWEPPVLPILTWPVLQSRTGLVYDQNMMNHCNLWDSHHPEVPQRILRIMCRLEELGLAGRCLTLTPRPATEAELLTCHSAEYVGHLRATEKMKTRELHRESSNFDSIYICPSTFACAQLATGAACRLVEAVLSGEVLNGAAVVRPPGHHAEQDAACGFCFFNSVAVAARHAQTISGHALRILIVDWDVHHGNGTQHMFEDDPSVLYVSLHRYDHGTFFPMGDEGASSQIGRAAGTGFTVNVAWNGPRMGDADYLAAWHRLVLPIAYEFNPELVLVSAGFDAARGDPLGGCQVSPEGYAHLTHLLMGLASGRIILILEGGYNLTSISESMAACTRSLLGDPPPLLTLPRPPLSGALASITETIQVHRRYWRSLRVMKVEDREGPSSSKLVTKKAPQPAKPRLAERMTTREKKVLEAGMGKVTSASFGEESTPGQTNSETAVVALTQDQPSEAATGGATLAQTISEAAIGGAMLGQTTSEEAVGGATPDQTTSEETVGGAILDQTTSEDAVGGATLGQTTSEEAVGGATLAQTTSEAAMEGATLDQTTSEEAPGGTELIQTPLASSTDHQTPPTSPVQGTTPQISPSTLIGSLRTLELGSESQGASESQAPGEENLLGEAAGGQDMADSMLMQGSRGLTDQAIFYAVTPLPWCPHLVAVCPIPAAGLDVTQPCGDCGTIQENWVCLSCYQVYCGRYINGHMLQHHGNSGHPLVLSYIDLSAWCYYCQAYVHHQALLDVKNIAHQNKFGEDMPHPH
Sequence of HDAC4 (P56524 whole entry, species assumed): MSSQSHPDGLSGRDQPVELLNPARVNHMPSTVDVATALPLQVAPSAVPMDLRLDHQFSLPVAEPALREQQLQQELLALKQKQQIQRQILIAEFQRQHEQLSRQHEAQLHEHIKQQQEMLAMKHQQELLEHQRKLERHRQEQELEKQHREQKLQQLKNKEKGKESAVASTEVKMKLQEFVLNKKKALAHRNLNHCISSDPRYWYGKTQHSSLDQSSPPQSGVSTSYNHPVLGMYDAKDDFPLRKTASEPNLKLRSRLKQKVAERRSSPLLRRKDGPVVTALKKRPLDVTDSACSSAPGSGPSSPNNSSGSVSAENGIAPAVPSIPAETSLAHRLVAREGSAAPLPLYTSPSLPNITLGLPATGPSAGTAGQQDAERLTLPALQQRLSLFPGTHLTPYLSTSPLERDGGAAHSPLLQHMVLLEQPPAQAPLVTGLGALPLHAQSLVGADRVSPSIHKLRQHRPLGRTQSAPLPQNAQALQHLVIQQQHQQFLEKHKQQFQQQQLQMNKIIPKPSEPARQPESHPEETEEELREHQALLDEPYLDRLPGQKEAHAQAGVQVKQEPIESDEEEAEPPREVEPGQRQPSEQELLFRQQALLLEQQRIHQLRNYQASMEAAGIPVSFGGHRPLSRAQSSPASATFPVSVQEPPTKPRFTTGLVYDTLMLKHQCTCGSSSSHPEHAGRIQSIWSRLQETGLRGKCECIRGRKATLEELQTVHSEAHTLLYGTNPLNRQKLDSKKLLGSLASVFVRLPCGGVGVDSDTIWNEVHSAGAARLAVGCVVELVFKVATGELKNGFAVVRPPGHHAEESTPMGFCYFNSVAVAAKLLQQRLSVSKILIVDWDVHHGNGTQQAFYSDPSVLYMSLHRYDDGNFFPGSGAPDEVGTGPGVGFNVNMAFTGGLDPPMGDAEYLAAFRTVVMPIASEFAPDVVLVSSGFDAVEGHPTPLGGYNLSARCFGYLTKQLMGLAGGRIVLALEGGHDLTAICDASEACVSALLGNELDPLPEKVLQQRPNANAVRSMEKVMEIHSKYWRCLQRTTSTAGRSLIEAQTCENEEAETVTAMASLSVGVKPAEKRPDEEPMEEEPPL
Sequence of HDAC4 (O15379 whole entry partner, species assumed): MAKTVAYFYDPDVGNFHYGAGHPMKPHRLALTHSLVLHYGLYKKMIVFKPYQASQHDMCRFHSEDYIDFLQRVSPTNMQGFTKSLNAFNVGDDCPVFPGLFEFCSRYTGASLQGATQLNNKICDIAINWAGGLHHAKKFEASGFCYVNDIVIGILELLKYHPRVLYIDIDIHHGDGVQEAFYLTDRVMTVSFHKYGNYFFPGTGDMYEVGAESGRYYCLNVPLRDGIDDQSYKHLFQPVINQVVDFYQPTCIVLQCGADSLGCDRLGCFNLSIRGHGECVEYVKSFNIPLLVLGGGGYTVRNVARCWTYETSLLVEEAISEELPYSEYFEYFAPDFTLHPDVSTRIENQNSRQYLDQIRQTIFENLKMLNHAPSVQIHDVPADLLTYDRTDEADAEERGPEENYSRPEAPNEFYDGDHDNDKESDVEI

Nc1ccccc1NC(=O)c1ccc(CNC(=O)OCc2cccnc2)cc1 [MS-275]
IC50 [1]: 2400 ± 700 nM | cell cycle arrest and apoptosis (caspase 3 activation) [2]: activities similar to UVI5008 | Percent Growth Inhibition after 22 days ([3]; 20 mg/kg i.p. every second day): 35 ± 12% | Normalised tumour weight [3, 19]: 100 ± 25 mg | Normalised tumour weight [3, 20]: 202.6 ± 81.5 mg | Normalised tumour weight [3, 21]: 746.65 ± 185 mg | Normalised tumour weight [3, 22]: 1360.61 ± 288 mg | Normalised tumour weight [3, 23]: 2423.09 ± 445.5 mg | IC50 [4]: 2300 ± 300 nM | IC50 [5]: 8200 ± 600 nM

CSCCNC(=O)/C(Cc1c[nH]c2ccc(Br)cc12)=N/O [UVI5020]
apoptotic activity ([2]; 5 μM, two samples of patient blasts): only a weak induction of apoptosis | cell cycle arrest and apoptosis, relative to UVI5008 (FIG. 3a) ([6]; U937, 24 hrs): inactive at inducing apoptosis and G2M arrest but it induces a G1 arrest | p21WAF1/CIP1 induction (FIG. 3c) ([7]; U937, 24 hrs): enhanced expression

Nc1ncn([C@@H]2O[C@H](CO)[C@@H](O)[C@H]2O)c(=O)n1 [5-azacytidine]
unmethylated p16INK4a promoter DNA (MSP) [8]: very similar to that seen with UVI5008

O=C(NCCSSCCNC(=O)/C(Cc1ccc(O)c(Br)c1)=N/O)/C(Cc1ccc(O)c(Br)c1)=N/O [UVI5000, Psammaplin A]
IC50 [9]: 4.2 nM | HDAC4 deacetylase activity inhibition [10]: only moderate activity | unmethylated p16INK4a promoter DNA (MSP) [8]: displayed a similar activity | concentration to inhibit HDAC in cell-based assay relative to enzyme-based assay [11]: 1800 times | cell cycle arrest and apoptosis (caspase 3 activation) [2]: induced cell cycle arrest and apoptosis | global histone H3 acetylation [12]: moderate time-dependent increase | inhibition of HDAC6 (alpha tubulin acetylation) [13]: inhibited the activity of HDAC6 | apoptogenic effect (caspase 3) [14]: strongest apoptogenic effect | anti-proliferative and apoptogenic action [15]: confirmed | cell cycle arrest, position of the block ([6]; U937, 30 hrs, 1 and 5 μM): arrests in the S and G2 phases | HDAC1 inhibition [16]: only a weak inhibitor of HDAC1 | expression of p21WAF1/CIP1 ([7]; U937, 6 and 16 hrs): dramatically increased | anti-proliferative and apoptogenic action [17]: confirmed

SAHA
unmethylated p16INK4a promoter DNA (MSP) [8]: inactive | cell cycle arrest and apoptosis (caspase 3 activation) [2]: activities similar to UVI5008 | Normalised tumour weight [3, 19]: 100 ± 24 mg | Normalised tumour weight [3, 20]: 166.69 ± 56.8 mg | Normalised tumour weight [3, 21]: 892.95 ± 267.6 mg | Normalised tumour weight [3, 22]: 1915.59 ± 409.5 mg | Normalised tumour weight [3, 23]: 2952.8 ± 636.4 mg | mortality [18]: 60% | tolerability [18]: not tolerable
